Experiment [1] addresses T1, GIPR (CHO-K1-hGIPR cells) (Homo sapiens, UniProt P48546).
T1 construct: host or cells: CHO-K1
T1 sequence (P48546 22-466): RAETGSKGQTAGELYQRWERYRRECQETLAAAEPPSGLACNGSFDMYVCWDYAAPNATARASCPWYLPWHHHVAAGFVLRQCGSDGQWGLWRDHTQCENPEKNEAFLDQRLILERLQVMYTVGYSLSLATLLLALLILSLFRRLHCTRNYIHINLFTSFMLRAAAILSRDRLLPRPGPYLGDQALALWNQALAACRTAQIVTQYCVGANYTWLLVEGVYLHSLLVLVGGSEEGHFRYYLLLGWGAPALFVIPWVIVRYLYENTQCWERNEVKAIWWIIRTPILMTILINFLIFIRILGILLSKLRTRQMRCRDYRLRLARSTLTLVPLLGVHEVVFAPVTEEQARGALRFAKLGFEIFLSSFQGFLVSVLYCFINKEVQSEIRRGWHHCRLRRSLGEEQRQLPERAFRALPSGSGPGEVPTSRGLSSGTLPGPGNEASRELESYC
Put plainly: FACS binding assay. Particulars: competition with 20 nM GIP-057, 4° C., 1 hour, read-out: pIC50 Category (converted). The method, boiled down: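 Read-out: flow cytometric median fluorescence intensity, APC/Cy5 channel, plotted vs peptide conc.; 4PL fit → EC50/pEC50 or IC50/pIC50. Cells: CHO-K1-hGIPR, Accutase-detached, 500.000/mL in PBS + 1% FCS. Detection: APC-streptavidin 1 μg/mL, 30 min, on ice.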
A general note: Flow cytometry measures light scatter and fluorescence of single cells or particles in a stream.

Experiment [2] concerns the target T2, human GIP receptor (bioGIPR) (Homo sapiens, UniProt P48546).
T2 construct: Biotinylate extracellular of the human GIP receptor (bioGIPR, Proteros biostructures GmbH, lot #02/2b); purchased Proteros biostructures GmbH lot #02/2b
T2 sequence (P48546 22-138 limits assumed): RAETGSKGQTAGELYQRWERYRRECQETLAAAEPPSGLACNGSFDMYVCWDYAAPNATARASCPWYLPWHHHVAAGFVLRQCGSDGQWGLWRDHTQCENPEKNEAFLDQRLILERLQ
As to the kind of experiment: Surface plasmon resonance (SPR) based binding assay. Conditions: Single Cycle Kinetic mode, 25° C.; for t1/2 Category: SPR dissociation half-life; for Kd: SPR, 1:1 Langmuir binding model, read-out: pKD Category (converted). The method, boiled down: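 Binding was measured at 25 °C by single-cycle kinetics against a reference flow cell, with blank-run and drift correction, after capturing biotinylated GIPR extracellular domain to ~3500 RU. Running buffer: HBST, 0.1% DMSO. A 1:1 Langmuir model gave kinetic rates, KD, t1/2 and pKD.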
In general terms: Surface plasmon resonance follows binding to a sensor surface in real time, without labels.

*1 amine or outer side, *2 acyl side, *3 side chain or, on linkers, in order; H or OH if unused. Where a SMILES comes first, the peptide text is derived from it. Bridges are numbered along the chain shown (N, C = ends). [ ]: non-standard residue; d: D form. The star is where a group is joined. X5 = NC(=O)[C@H](CCCCNC(=O)CN1CCN(CC(=O)O)CCN(CC(=O)O)CCN(CC(=O)O)CC1)NC(=O)CCC(=O)NCCCOCCOCCOCCCN*; X3 = O=C(O)CN1CCN(CC(=O)O)CCN(CC(=O)NCCCOCCOCCOCCCN*)CCN(CC(=O)O)CC1; DOTA = O=C(O)CN1CCN(CC(=O)O)CCN(CC(=O)*)CCN(CC(=O)O)CC1; Pro(cis-4-NHAc) = CC(=O)N[C@@H]1CN[C@H](C(=O)O)C1; Trp(5-Cl) = N[C@@H](Cc1c[nH]c2ccc(Cl)cc12)C(=O)O; Pyridine(2,6-diCH2) = c1cc(C[*:1])nc(C[*:2])c1; Pro(4S-NH2) = N[C@@H]1CN[C@H](C(=O)O)C1; Pro(4R-NH2) = N[C@H]1CN[C@H](C(=O)O)C1; X6 = c1cc(CSCCN[*:2])nc(C[*:1])c1; X7 = c1cc(CSCCN[*:2])cc(C[*:1])c1; Hyp = O=C(O)[C@@H]1C[C@@H](O)CN1; X1 = O=C(CN1CCC(N[*:1])CC1)[*:2]; Suc = O=C(CCC(=O)[*:2])[*:1]; Api = NC1(C(=O)O)CCNCC1; Thp = NC1(C(=O)O)CCOCC1; Aib = CC(C)(N)C(=O)O Some results are limits rather than exact numbers.

In the case of `CC[C@H](C)[C@@H]1NC(=O)[C@H](CC(C)C)NC(=O)C(C)(C)NC(=O)[C@@H](NC(=O)[C@@H](CC(C)C)NC(=O)[C@H](CCC(=O)O)NC(=O)[C@@H]2C[C@H](N)CN2C(=O)[C@H](Cc2c[nH]c3ccc(Cl)cc23)NC(=O)[C@H](Cc2c[nH]c3ccccc23)NC(=O)[C@H](CC(=O)O)NC(=O)CCC(=O)NCCCOCCOCCOCCCNC(=O)CN2CCN(CC(=O)O)CCN(CC(=O)O)CCN(CC(=O)O)CC2)CSCc2cccc(c2)CSCCNC1=O` [GIP-096, DOTA-Ttds-Asp-Trp-5Clw-4Ap-Glu-leu-[Cys(3MeBn)-Aib-Leu-Ile-AET]] ({X3-Suc}-DW[Trp(5-Cl)][Pro(4S-NH2)]E[dL]C[Aib]LI; linker 7-C via X7), the IC50 in experiment [1] is under 10 nM. In experiment [2], the “t1/2 Category” value is listed as “A (t1/2 values>15 min)” and the Kd was under 1 nM.

In the case of `CC[C@H](C)[C@@H]1NC(=O)[C@H](CC(C)C)NC(=O)C2(CCN(C(C)=O)CC2)NC(=O)[C@@H](NC(=O)[C@@H](CC(C)C)NC(=O)[C@H](CCC(=O)O)NC(=O)[C@@H]2CCCN2C(=O)[C@H](Cc2c[nH]c3ccc(Cl)cc23)NC(=O)[C@H](Cc2c[nH]c3ccccc23)NC(=O)[C@H](CC(=O)O)NC(=O)CCC(=O)NCCCOCCOCCOCCCNC(=O)CN2CCN(CC(=O)O)CCN(CC(=O)O)CCN(CC(=O)O)CC2)CSCc2cccc(c2)CSCCNC1=O` [GIP-097, DOTA-Ttds-Asp-Trp-5Clw-Pro-Glu-leu-[Cys(3MeBn)-Apc(Ac)-Leu-Ile-AET]] ({X3-Suc}-DW[Trp(5-Cl)]PE[dL]C[Api](Ac)LI; linker 7-C via X7), the IC50 in experiment [1] is under 10 nM. Also, in experiment [2], the “t1/2 Category” value is on record as “A (t1/2 values>15 min)” and the Kd was under 1 nM.

`CC[C@H](C)[C@@H]1NC(=O)[C@H](CC(C)C)NC(=O)C2(CCOCC2)NC(=O)[C@@H](NC(=O)[C@@H](CC(C)C)NC(=O)[C@H](CCC(=O)O)NC(=O)[C@@H]2C[C@@H](O)CN2C(=O)[C@H](Cc2c[nH]c3ccc(Cl)cc23)NC(=O)[C@H](Cc2c[nH]c3ccccc23)NC(=O)[C@H](CC(=O)O)NC(=O)CN2CCC(NC(=O)CN3CCN(CC(=O)O)CCN(CC(=O)O)CCN(CC(=O)O)CC3)CC2)CSCc2cccc(n2)CSCCNC1=O` [GIP-103, DOTA-APAc-Asp-Trp-5Clw-Hyp-Glu-leu-[Cys(2Lut)-Thp-Leu-Ile-AET]] ({DOTA}-[X1]DW[Trp(5-Cl)][Hyp]E[dL]C[Thp]LI; linker 8-C via X6): the IC50 in experiment [1] was under 10 nM. Further, in experiment [2], the “t1/2 Category” value is given as “A (t1/2 values>15 min)” and the Kd is under 1 nM.

On to `CC[C@H](C)[C@@H]1NC(=O)[C@H](CC(C)C)NC(=O)C2(CCOCC2)NC(=O)[C@@H](NC(=O)[C@@H](CC(C)C)NC(=O)[C@H](CCC(=O)O)NC(=O)[C@@H]2C[C@@H](O)CN2C(=O)[C@H](Cc2c[nH]c3ccc(Cl)cc23)NC(=O)[C@H](Cc2c[nH]c3ccccc23)NC(=O)[C@H](CC(=O)O)NC(=O)CN2CCC(NC(=O)CN3CCN(CC(=O)O)CCN(CC(=O)O)CCN(CC(=O)O)CC3)CC2)CNCc2cccc(n2)CSCCNC1=O` [GIP-106, DOTA-APAc-Asp-Trp-5Clw-Hyp-Glu-leu-[Dap(2Lut)-Thp-Leu-Ile-AET]], for which the IC50 in experiment [1] was under 10 nM. Also, in experiment [2], the “t1/2 Category” value is listed as “A (t1/2 values>15 min)” and the Kd is 1 to 7.94 nM.

Consider `CC[C@H](C)[C@@H]1NC(=O)[C@H](CC(C)C)NC(=O)C2(CCOCC2)NC(=O)[C@@H](NC(=O)[C@@H](CC(C)C)NC(=O)[C@H](CCC(=O)O)NC(=O)[C@@H]2C[C@@H](O)CN2C(=O)[C@H](Cc2c[nH]c3ccc(Cl)cc23)NC(=O)[C@H](Cc2c[nH]c3ccccc23)NC(=O)[C@H](CC(=O)O)NC(=O)CN2CCC(NC(=O)CN3CCN(CC(=O)O)CCN(CC(=O)O)CCN(CC(=O)O)CC3)CC2)CNCc2cccc(c2)CSCCNC1=O` [GIP-107, DOTA-APAc-Asp-Trp-5Clw-Hyp-Glu-leu-[Dap(3MeBn)-Thp-Leu-Ile-AET]], for which the IC50 in experiment [1] was under 10 nM. Also, in experiment [2], the “t1/2 Category” value is “A (t1/2 values>15 min)” and the Kd was under 1 nM.

Consider `CC[C@H](C)[C@@H]1NC(=O)[C@H](CC(C)C)NC(=O)C2(CCOCC2)NC(=O)[C@@H](NC(=O)[C@@H](CC(C)C)NC(=O)[C@H](CCC(=O)O)NC(=O)[C@@H]2C[C@@H](O)CN2C(=O)[C@H](Cc2c[nH]c3ccc(Cl)cc23)NC(=O)[C@H](Cc2c[nH]c3ccccc23)NC(=O)CCC(=O)O)CSCc2cccc(n2)CSC[C@@H](C(=O)NCCCOCCOCCOCCCNC(=O)CCC(=O)N[C@@H](CCCCNC(=O)CN2CCN(CC(=O)O)CCN(CC(=O)O)CCN(CC(=O)O)CC2)C(N)=O)NC1=O` [GIP-108, HO-Succinyl-Trp-5Clw-Hyp-Glu-leu-[Cys(2Lut)-Thp-Leu-Ile-Cys]-Ttds-Lys(DOTA)-NH2] (Suc-W[Trp(5-Cl)][Hyp]E[dL]C[Thp]LIC-X5; linker 6-10 via Pyridine(2,6-diCH2)), for which the IC50 in experiment [1] was under 10 nM. Moreover, in experiment [2], the “t1/2 Category” value is “A (t1/2 values>15 min)” and the Kd was under 1 nM.

In the case of `CC[C@H](C)[C@@H]1NC(=O)[C@H](CC(C)C)NC(=O)C2(CCOCC2)NC(=O)[C@@H](NC(=O)[C@@H](CC(C)C)NC(=O)[C@H](CCC(=O)O)NC(=O)[C@@H]2C[C@@H](O)CN2C(=O)[C@H](Cc2c[nH]c3ccc(Cl)cc23)NC(=O)[C@H](Cc2c[nH]c3ccccc23)NC(=O)CCC(=O)O)CSCc2cccc(n2)CSC[C@@H](C(=O)NC2CCN(CC(=O)N[C@@H](CCCCNC(=O)CN3CCN(CC(=O)O)CCN(CC(=O)O)CCN(CC(=O)O)CC3)C(N)=O)CC2)NC1=O` [GIP-109, HO-Succinyl-Trp-5Clw-Hyp-Glu-leu-[Cys(2Lut)-Thp-Leu-Ile-Cys]-APAc-Lys(DOTA)-NH2] (Suc-W[Trp(5-Cl)][Hyp]E[dL]C[Thp]LIC[X1]K(DOTA)-NH2; linker 6-10 via Pyridine(2,6-diCH2)), in experiment [1], the IC50 was under 10 nM. Also, in experiment [2], the “t1/2 Category” value is given as “A (t1/2 values>15 min)” and the Kd was under 1 nM.

For the molecule `CC[C@H](C)[C@@H]1NC(=O)[C@H](CC(C)C)NC(=O)C2(CCN(C(=O)CN3CCN(CC(=O)O)CCN(CC(=O)O)CCN(CC(=O)O)CC3)CC2)NC(=O)[C@@H](NC(=O)[C@@H](CC(C)C)NC(=O)[C@H](CCC(=O)O)NC(=O)[C@@H]2C[C@@H](O)CN2C(=O)[C@H](Cc2c[nH]c3ccc(Cl)cc23)NC(=O)[C@H](Cc2c[nH]c3ccccc23)NC(=O)CCC(=O)O)CSCc2cccc(n2)CSCCNC1=O` [GIP-110, HO-Succinyl-Trp-5Clw-Hyp-Glu-leu-[Cys(2Lut)-Apc(DOTA)-Leu-Ile-AET]] (Suc-W[Trp(5-Cl)][Hyp]E[dL]C[Api](DOTA)LI; linker 6-C via X6), in experiment [1], the IC50 was under 10 nM. In experiment [2], the “t1/2 Category” value is “A (t1/2 values>15 min)” and the Kd is under 1 nM.

For `CC[C@H](C)[C@@H]1NC(=O)[C@H](CC(C)C)NC(=O)C(C)(C)NC(=O)[C@@H](NC(=O)[C@@H](CC(C)C)NC(=O)[C@H](CCC(=O)O)NC(=O)[C@@H]2C[C@H](NC(C)=O)CN2C(=O)[C@H](Cc2c[nH]c3ccc(Cl)cc23)NC(=O)[C@H](Cc2c[nH]c3ccccc23)NC(=O)[C@H](CC(=O)O)NC(=O)CCC(=O)NCCCOCCOCCOCCCNC(=O)CN2CCN(CC(=O)O)CCN(CC(=O)O)CCN(CC(=O)O)CC2)CSCc2cccc(c2)CSCCNC1=O` [GIP-111, DOTA-Ttds-Asp-Trp-5Clw-4Ap(Ac)-Glu-leu-[Cys(3MeBn)-Aib-Leu-Ile-AET]] ({X3-Suc}-DW[Trp(5-Cl)][Pro(cis-4-NHAc)]E[dL]C[Aib]LI; linker 7-C via X7), the IC50 in experiment [1] was under 10 nM. Further, in experiment [2], the “t1/2 Category” value is reported as “A (t1/2 values>15 min)” and the Kd is 1 to 7.94 nM.

Turning to `CC[C@H](C)[C@@H]1NC(=O)[C@H](CC(C)C)NC(=O)C2(CCNCC2)NC(=O)[C@@H](NC(=O)[C@@H](CC(C)C)NC(=O)[C@H](CCC(=O)O)NC(=O)[C@@H]2C[C@@H](N)CN2C(=O)[C@H](Cc2c[nH]c3ccc(Cl)cc23)NC(=O)[C@H](Cc2c[nH]c3ccccc23)NC(=O)[C@H](CC(=O)O)NC(=O)CCC(=O)NCCCOCCOCCOCCCNC(=O)CN2CCN(CC(=O)O)CCN(CC(=O)O)CCN(CC(=O)O)CC2)CSCc2cccc(c2)CSCCNC1=O` [GIP-112, DOTA-Ttds-Asp-Trp-5Clw-Tap-Glu-leu-[Cys(2Lut)-Apc-Leu-Ile-AET]] ({X3-Suc}-DW[Trp(5-Cl)][Pro(4R-NH2)]E[dL]C[Api]LI; linker 7-C via X7), the IC50 in experiment [1] is under 10 nM. In experiment [2], the “t1/2 Category” value is on record as “A (t1/2 values>15 min)” and the Kd is under 1 nM.
